From patent US9862742B2, “Tricyclic nucleosides and oligomeric compounds prepared therefrom” (UNIVERSITAT BERN, priority 2013, dated 2018)
Oligonucleotides are written 5' to 3', each unit as a sugar letter and its base; * is a phosphorothioate linkage, no mark a phosphodiester; rarer units and linkages stand in square brackets, end groups in braces. Plain capitals give the bases only. [6'F-TC-N] = 6'-fluorinated tricyclic nucleoside, subtype b of the publication (N: the base); [F-tcDNA] = 6'-fluoro tricyclic (tricyclo-DNA) nucleoside; [tcDNA-N] = tricyclo-DNA nucleoside (N: the base); [tcDNA] = tricyclo-DNA nucleoside; d = 2'-deoxy (DNA); {P} = phosphate

Experiments:
complementary DNA = test: Tm study of oligomeric compounds duplexed with complementary DNA (UV melting); format: binding; conditions: 1.2 μM, 150 mM NaCl, 10 mM phosphate, 0.1 mM EDTA, pH 7; for ΔTm/mod (° C.) vs DNA: referenced to unmodified DNA or to the fully modified tricyclo-DNA oligomer
Description: (§1) The relative ability of a chemically-modified oligomeric compound to bind to complementary nucleic acid strands, as compared to natural oligonucleotides, is measured by obtaining the melting temperature of a hybridization complex of said chemically-modified oligomeric compound with its complementary unmodified target nucleic acid. The melting temperature (Tm), a characteristic physical property of double helixes, denotes the temperature in degrees centigrade at which 50% helical versus coiled (unhybridized) forms are present. Tm (also commonly referred to as binding affinity) is measured by using the UV spectrum to determine the formation and breakdown (melting) of hybridization. Base stacking, which occurs during hybridization, is accompanied by a reduction in UV absorption (hypochromicity). Consequently a reduction in UV absorption indicates a higher Tm. Following standard automated DNA synthesis protocols oligomeric compounds were prepared comprising one or more tricyclic nucleosides for Tm studies. After cleavage from the solid support, the oligomeric compounds were purified by ion exchange HPLC and analyzed by LCMS using standard procedures. The Tm of the modified 10 mer oligomeric compounds were compared to an unmodified 10 mer DNA oligonucleotide when duplexed to either DNA or RNA. Tm's were determined using a Cary 100 Bio spectrophotometer with the Cary Win UV thermal program was used to measure absorbance vs. temperature. For the Tm experiments, the oligomeric compounds were prepared at a concentration of 1.2 μM in a buffer of 150 mM NaCl, 10 mM phosphate, 0.1 mM EDTA at pH 7. The concentration determined at 85° C. was 1.2 μM after mixing of equal volumes of selected oligomeric compound and complementary RNA or DNA. The oligomeric compounds were hybridized with a complementary RNA or DNA by heating the duplex to 90° C. for 5 minutes and then cooling to room temperature. Tm measurements were taken using a spectrophotometer while the duplex solution was heated in a cuvette at a rate of 0.5° C./min starting at 15° C. until the temperature was 85° C. Tm values were determined using Vant Hoff calculations (A260 vs temperature curve) using non self-complementary sequences where the minimum absorbance related to the duplex and the maximum absorbance related to the non-duplex single strand are manually integrated into the program.

complementary RNA = test: Tm study of oligomeric compounds duplexed with complementary RNA (UV melting); format: binding; conditions: 1.2 μM, 150 mM NaCl, 10 mM phosphate, 0.1 mM EDTA, pH 7; for ΔTm/mod (° C.) vs RNA: referenced to unmodified DNA or to the fully modified tricyclo-DNA oligomer
Description: as §1

[1] = test system: exon 23 of the mouse dystrophin gene; test: Exon 23 skipping in primary mdx cells, gymnotic delivery, RT-PCR/nested PCR and gel electrophoresis; format: cell-based; conditions: for exon skipping (exon 23, gel of nested PCR products): 50 μg (approx 9 nmol) oligonucleotide, no transfection agent (gymnosis), harvested 4 days after transfection
Text: The mdx mouse represents a model for the human genetic disease Duchenne muscular dystrophy. It contains a mutation in exon 23 of the mouse dystrophin gene which gives rise to a premature stop codon. As a consequence no functional dystrophin mRNA and dystrophin protein is produced. It is known in the field (Lu et al., Proc Natl Acad Sci USA 2005, 102, 198-203) that administration of an antisense oligonucleotide designed to bind to the exon/intron junction of exon 23 leads to skipping of exon 23 during mRNA splicing and thus to a functional variant of the mouse dystrophin protein.
To test the exon skipping potential of A20-A23, mdx primary cells (mdx mouse) were transfected without transfection agents (gymnosis) with 50 μg (approx 9 nmol) of each oligonucleotide A20 to A23. Cells were harvested 4 days after transfection and the RNA was extracted. RT-PCR and nested PCR around exon 23 (EX20F/Ex26R) was performed and the products analyzed by gel electrophoresis (FIG. 1).
The slower moving band correspond to nonskipped RNA (including […]) while the faster moving band corresponds to skipped ([…] excluded) RNA.

01 (AACTGTCACG; unmodified DNA) [compound 01]
ΔTm/mod (° C.) vs DNA (complementary DNA): 0 °C
ΔTm/mod (° C.) vs RNA (complementary RNA): 0 °C

02 (AACTGTCACG; sugars from the 5' end d5 [tcDNA]1 d4, all phosphodiester, methylation of C not given here) [compound 02]
ΔTm/mod (° C.) vs DNA (complementary DNA): +2.1 °C
ΔTm/mod (° C.) vs RNA (complementary RNA): +0.9 °C

03 (dAdAdCdTdG[6'F-TC-T]dCdAdCdG) [compound 03]
ΔTm/mod (° C.) vs DNA (complementary DNA): +2.0 °C
ΔTm/mod (° C.) vs RNA (complementary RNA): +0.4 °C

04 (dAdAdC[6'F-TC-T]dGdTdCdAdCdG) [compound 04]
ΔTm/mod (° C.) vs DNA (complementary DNA): +1.6 °C
ΔTm/mod (° C.) vs RNA (complementary RNA): +0.7 °C

05 (dAdAdC[6'F-TC-T]dG[6'F-TC-T]dCdAdCdG) [compound 05]
ΔTm/mod (° C.) vs DNA (complementary DNA): 0 °C
ΔTm/mod (° C.) vs RNA (complementary RNA): 0 °C

06 (pA_{a}A_{a}C_{a}T_{a}G_{a}T_{a}C_{a}A_{a}C_{a}G_{a}; fully modified with subtype a nucleosides (not given here), 5'-phosphate, phosphodiester, as printed in the source, key not given here) [compound 06]
ΔTm/mod (° C.) vs DNA (complementary DNA): 0 °C
ΔTm/mod (° C.) vs RNA (complementary RNA): 0 °C

07 (pA_{a}A_{a}C_{a}T_{a}G_{a}T_{b}C_{a}A_{a}C_{a}G_{a}; as printed in the source, key not given here) [compound 07]
ΔTm/mod (° C.) vs DNA (complementary DNA): 0 °C
ΔTm/mod (° C.) vs RNA (complementary RNA): +0.7 °C

08 (pA_{a}A_{a}C_{a}T_{b}G_{a}T_{a}C_{a}A_{a}C_{a}G_{a}; as printed in the source, key not given here) [compound 08]
ΔTm/mod (° C.) vs DNA (complementary DNA): −1.6 °C
ΔTm/mod (° C.) vs RNA (complementary RNA): +0.3 °C

09 (pA_{a}A_{a}C_{a}T_{b}G_{a}T_{b}C_{a}A_{a}C_{a}G_{a}; as printed in the source, key not given here) [compound 09]
ΔTm/mod (° C.) vs DNA (complementary DNA): −1.8 °C
ΔTm/mod (° C.) vs RNA (complementary RNA): −0.2 °C

10 (AACTGT_{c}CACG; as printed in the source, key not given here) [compound 10]
ΔTm/mod (° C.) vs DNA (complementary DNA): +1.8 °C
ΔTm/mod (° C.) vs RNA (complementary RNA): +0.9 °C

12 (AACT_{c}GT_{c}CACG; as printed in the source, key not given here) [compound 12]
ΔTm/mod (° C.) vs DNA (complementary DNA): +1.8 °C
ΔTm/mod (° C.) vs RNA (complementary RNA): +2.8 °C

13 (AACTGT_{d}CACG; as printed in the source, key not given here) [compound 13]
ΔTm/mod (° C.) vs DNA (complementary DNA): −4.5 °C
ΔTm/mod (° C.) vs RNA (complementary RNA): −4.7 °C

14 (AACT_{d}GTCACG; as printed in the source, key not given here) [compound 14]
ΔTm/mod (° C.) vs DNA (complementary DNA): −2.7 °C
ΔTm/mod (° C.) vs RNA (complementary RNA): −2.5 °C

15 (AACT_{d}GT_{d}CACG; as printed in the source, key not given here) [compound 15]
ΔTm/mod (° C.) vs DNA (complementary DNA): −4.3 °C
ΔTm/mod (° C.) vs RNA (complementary RNA): −3.0 °C

16 (GCATTTTTACCG; unmodified DNA) [compound 16]
ΔTm/mod (° C.) vs DNA (complementary DNA): 0 °C
ΔTm/mod (° C.) vs RNA (complementary RNA): 0 °C

17 (GCAT_{d}T_{d}T_{d}T_{d}T_{d}ACCG; as printed in the source, key not given here) [compound 17]
ΔTm/mod (° C.) vs DNA (complementary DNA): -1.1 °C
ΔTm/mod (° C.) vs RNA (complementary RNA): +0.6 °C

SEQ ID NO. 01: unmodified 10 mer DNA oligonucleotide AACTGTCACG, phosphodiester (unmodified DNA) [reference compound]
Tm duplexed with DNA (complementary DNA): 43.5 °C
Tm duplexed with RNA (complementary RNA): 45.1 °C

SEQ ID NO. 06: pAaAaCaTaGaTaCaAaCaGa, fully modified tricyclo-DNA, 5′-phosphorylated (AACTGTCACG; all [tcDNA-N], all phosphodiester, 5' {P}, methylation of C not given here) [reference compound]
Tm duplexed with DNA (complementary DNA): 55.0 °C
Tm duplexed with RNA (complementary RNA): 66.2 °C

SEQ ID NO. 07: pAaAaCaTaGaTbCaAaCaGa, tricyclo-DNA backbone with one 6′-fluoro residue, 5′-phosphorylated (AACTGTCACG; sugars from the 5' end [tcDNA]5 [F-tcDNA]1 [tcDNA]4, all phosphodiester, 5' {P}, methylation of C not given here)
ΔTm/mod (° C.) vs RNA (complementary RNA): up to +0.7 °C

SEQ ID NO. 16: unmodified oligonucleotide GCATTTTTACCG (unmodified DNA) [reference compound]
Tm duplexed with DNA (complementary DNA): 45.6 °C
Tm duplexed with RNA (complementary RNA): 42.2 °C

SEQ ID NO. 17: GCATdTdTdTdTdACCG, 5 consecutive arabinofluoro residues (GCATTTTTACCG; listed as DNA, chemistry not fully specified)
ΔTm/mod (° C.) vs RNA (complementary RNA): +0.6 °C

SEQ ID NO. 19: pAaAaCaCaTaCaGaGaCaTaTaAaCaCaTa, 15-mer tricyclo-DNA, PS linkages, 5′-phosphate, no fluorine substituents ({P}-[tcDNA-A]*[tcDNA-A]*[tcDNA-C]*[tcDNA-C]*[tcDNA-T]*[tcDNA-C]*[tcDNA-G]*[tcDNA-G]*[tcDNA-C]*[tcDNA-T]*[tcDNA-T]*[tcDNA-A]*[tcDNA-C]*[tcDNA-C]*[tcDNA-T]) [reference compound]
exon skipping (exon 23, gel of nested PCR products) [1]: substantial exon skipping

SEQ ID NO. 21: pAaAaCbCbTbCbGaGaCbTbTbAaCbCbTb, fluoro-oligonucleotide 15-mer, PS linkages, 5′-phosphate, C is 5-methylcytosine (AACCTCGGCTTACCT; fluoro tricyclo-DNA, PS, 5′-phosphate, 5-methylcytosine; Sequence for biophysical analysis; (1)..(1) tricyclic nucleoside according to fomula I with T1 being phosphate, T2 being phosphorothioate, Bx being adenine and the other substituents being hydrogen; (2)..(2) tricyclic nucleoside according to fomula I with T1 and T2 being phosphorothioate, Bx being adenine and the other substituents being hydrogen; (3)..(3) tricyclic nucleoside according to fomula)
exon skipping (exon 23, gel of nested PCR products) [1]: substantial exon skipping
exon skipping, qualitative comparison with A21 ([1]; 50 μg, gymnosis, 4 days): slightly superior compared to A21
